SMILES strings stand for the structures. Like-named read-outs stand apart in the source and are kept apart here. Starred links: 1 amine or outer side, 2 acyl side, 3 side chain; linkers in the order of their positions; H or OH if unused. Positions of bridges follow the written chain, without caps; N, C: chain ends. Non-standard residues stand in square brackets, D forms with d. Residues, ends and D or L forms follow the SMILES beside them. Triazole bridges read from a SMILES are 1,4-linked. Chains are numbered I, II in the order given. *: point of attachment. X1 = O=C(CCCC[C@@H]1SC[C@@H]2NC(=O)N[C@@H]21)NCCCOCCOCCOCCCN*; Lys(N3) = [N-]=[N+]=NCCCC[C@H](N)C(=O)O; Suc = O=C(CCC(=O)[*:2])[*:1]; dPra = C#CC[C@@H](N)C(=O)O

For data set [1] the following is noted: pH 7.4.
For data set [2] the following is noted: mouse, in vivo, ip, 5 mg/kg.
Data set [3] is described as follows: in vivo. The settings on record: male, CD-1, mouse.
A short description of data set [4]: In vivo pharmacokinetics in mice (IV or IP, parallel sampling). The settings on record: for AUC% Ext: male CD-1 mice.
[5] abbreviates: male, CD-1, mouse, plasma, ip, 5 mg/kg.
Setting [6] is: male, CD-1, mouse, plasma, iv, 1 mg/kg.

Consider `CC[C@H](C)[C@@H]1NC(=O)[C@H](CC(=O)O)NC(=O)[C@@H](NC(=O)[C@H](CC(N)=O)NC(=O)[C@@H]2CCCN2C(=O)[C@H](CCC(=O)O)NC(=O)[C@@H](NC(=O)CCC(=O)NCCCOCCOCCOCCCNC(=O)CCCC[C@@H]2SC[C@@H]3NC(=O)N[C@@H]32)C(C)C)CSSC[C@@H](C(=O)N[C@@H](Cc2ccccc2)C(=O)N[C@@H](CCC(=O)O)C(=O)N[C@@H](CCCNC(=N)N)C(=O)N[C@@H](CC(C)C)C(=O)N[C@@H](CCCCn2cc(C[C@@H](N)C(=O)N[C@H](CC(C)C)C(=O)N[C@H](Cc3ccccc3)C(=O)N[C@H](CCCNC(=N)N)C(=O)N[C@H](CCC(=O)O)C(=O)N[C@H](Cc3c[nH]c4ccccc34)C(N)=O)nn2)C(=O)O)NC(=O)[C@H](CCC(=O)O)NC(=O)[C@H](Cc2c[nH]c3ccccc23)NC(=O)[C@H](CCC(=O)O)NC(=O)[C@H](Cc2c[nH]c3ccccc23)NC(=O)[C@H](CCSC)NC(=O)[C@H](C(C)C)NC(=O)[C@H](Cc2c[nH]cn2)NC1=O` [Bi‐LV] (I: {X1-Suc}-VEPNCDIHVMWEWECFERL[Lys(N3)]-OH / II: H-[dPra][dL][dF][dR][dE][dW]-NH2; disulfide I:5-I:15; triazole I:20-II:1), for which the “resistance to metabolic degradation by mouse liver microsomes (in words)” value in data set [1] was “high resistance to metabolic degradation”. The bioavailability (usually the share of a dose that reaches the circulation, judged against a reference dose that is usually intravenous) in data set [2] turned out to be 41%. In data set [3] (ip, 5 mg/kg), the AUC(0-inf) (in general, total exposure, with the tail of the curve extrapolated) was 2420 ng·h/mL; the AUC(0-t) – broadly, the area under the concentration-time curve up to a stated or last time point – worked out at 2170 ng·h/mL; the Cmax (commonly the highest concentration seen after dosing) came to 3210 ng/mL; the Tmax – broadly, the time from dosing to the highest level – was determined as 10.2 min. Besides, the half-life (usually how long it takes for the measured level to halve) in data set [3] (ip, 5 mg/kg) was 154 min. In data set [3] (iv, 1 mg/kg), this compound returned an AUC(0-inf) of 1110 ng·h/mL, an AUC(0-t) of 1050 ng·h/mL, a Vd of 0.16 L/kg and a clearance of 15 mL/min/kg. In data set [3] (iv, 1 mg/kg), the half-life stood at 7 min.

Regarding `CC[C@@H](C)[C@@H](NC(=O)[C@@H](CCC(=O)O)NC(=O)[C@@H](CCC(=O)O)NC(=O)[C@H](N)Cc1cn(CCCC[C@H](NC(=O)[C@@H](Cc2c[nH]c3ccccc23)NC(=O)[C@@H](CCC(=O)O)NC(=O)[C@@H](CCCNC(=N)N)NC(=O)[C@@H](Cc2ccccc2)NC(=O)[C@@H](CC(C)C)NC(=O)[C@H](N)Cc2cn(CCCC[C@H](NC(=O)[C@H](CC(C)C)NC(=O)[C@H](CCCNC(=N)N)NC(=O)[C@H](CCC(=O)O)NC(=O)[C@H](Cc3ccccc3)NC(=O)[C@@H]3CSSC[C@H](NC(=O)[C@H](CC(N)=O)NC(=O)[C@@H]4CCCN4C(=O)[C@H](CCC(=O)O)NC(=O)[C@@H](NC(=O)CCC(=O)NCCCOCCOCCOCCCNC(=O)CCCC[C@@H]4SC[C@@H]5NC(=O)N[C@@H]54)C(C)C)C(=O)N[C@@H](CC(=O)O)C(=O)N[C@@H]([C@@H](C)CC)C(=O)N[C@@H](Cc4c[nH]cn4)C(=O)N[C@@H](C(C)C)C(=O)N[C@@H](CCSC)C(=O)N[C@@H](Cc4c[nH]c5ccccc45)C(=O)N[C@@H](CCC(=O)O)C(=O)N[C@@H](Cc4c[nH]c5ccccc45)C(=O)N[C@@H](CCC(=O)O)C(=O)N3)C(=O)O)nn2)C(=O)O)nn1)C(=O)N[C@H](CCCNC(=N)N)C(=O)N[C@H](CC(=O)O)C(N)=O` [Tri‐LV] (I: {X1-Suc}-VEPNCDIHVMWEWECFERL[Lys(N3)]-OH / II: H-[dPra][dL][dF][dR][dE][dW][Lys(N3)]-OH / III: H-[dPra][dE][dE][dI][dR][dD]-NH2; disulfide I:5-I:15; triazole I:20-II:1, II:7-III:1), in data set [4] (IP, 5 mg/kg single dose, plasma), the “AUC% Ext” value was determined as 2.04%. Besides, the “AUC% Ext” value in data set [4] (IV, 1 mg/kg single dose, plasma) is 6.49%. Moreover, in data set [4] (setting [5]), the AUC(0-inf) stood at 32200 ng·h/mL, the AUC(0-t) worked out at 31500 ng·h/mL, the maximum concentration (Cmax) worked out at 19800 ng/mL and the Tmax was found to be 30 min. For the same compound, in data set [4] (setting [6]), the AUC(0-inf) amounted to 6490 ng·h/mL, the AUC(0-t) worked out at 6070 ng·h/mL, the Vd turned out to be 0.0967 L/kg and the clearance stood at 2.57 mL/min/kg. The compound also showed a bioavailability in data set [4] (mouse, in vivo, ip, 5 mg/kg) of 99%.

Values taken from publication PMC6585716, “Protein catalyzed capture agents with tailored performance for in vitro and in vivo applications” (Biopolymers, 2017).
